Source: patent US20250129370A1, “METHOD FOR REDUCING HEPATIC TRIGLYCERIDES” (ADAERATA, LIMITED PARTNERSHIP, priority 2022, published 2025)

Key:
hTfR1 = test: Western blot of hTfR1 protein in Huh7 cells co-transfected with miR-125a-5p vector; format: cell-based, human
Excerpt: FIGS. 31A-B. Western blot (FIG. 31A) and quantitative (FIG. 31B) analysis of the cellular expression of human TfR1 after the co-transfection of the miR-125a-5p and TfR1-overexpressing vectors in Huh7 cells. No direct effect by miR-125a-5p on TfR1 expression was observed. Here miR-125a-5p was overexpressed at different plasmid DNA ratios of PCSK7: miRNA: 1:2 (2×), 1:3 (3×), and 1:5 (5×). X stands for vector DNA fold for miR-125-5p compared to vector expressing PC7.
In the next step, the effect of miR-125a-5p on PC7 function was determined. […] Thereafter, the impact of miR-125a-5p on the enzymatic function of PC7 was assessed by co-transfecting Huh7 cells with the miR-125a-5p-overexpressing vector, with that coding for the full length of PCSK7, and a plasmid encoding hTfR1 (Guillemot et al., 2013; Durand et al., 2020). […]
Subsequently, proteins were isolated with an ice-cold RIPA buffer (1×), comprising 50 mM of Tris hydrochloride (pH 8), 150 mM of sodium chloride, 0.1% sodium dodecyl sulfate, 1% Nonidet P40, 0.25% sodium deoxycholate, and a cocktail of protease inhibitors (Roche, Oakville, ON, Canada). […] Both PC7 and TfR1 were C-terminally tagged with V5 and detected with a V5-monoclonal antibody (Invitrogen) and membranes were incubated with appropriate primary and secondary antibodies, as reported (Guillemot et al., 2013). […]

[1] = system: mutated form of PCSK7 3′-UTR; test: Luciferase reporter assay, miRNA target site-deleted PCSK7 3′-UTR, HEK293T cells; format: cell-based, human
Excerpt: The interactions between the miRNAs and their probable targets on PCSK7 were explored by cloning the potential target regions in psiCHECK-2™ (Promega, USA), a luciferase reporter vector. In psiCHECK-2™, hRluc, the Renilla luciferase gene, is located upstream of the target regions of interest cloned into the psiCHECK-2™ vector downstream of the Renilla gene. The region corresponding to the 3′-UTR of PCSK7 (926-nt sequences in length) that constituted the predicted miRNA response elements was PCR-amplified and cloned downstream of the Renilla luciferase gene in the psiCHECK-2™ vector (Promega, USA). For the confirmation of whether miRNA response elements (miRNA target sites) on the 3′-UTR of PCSK7 were active and had direct interactions with the miRNAs, different mutants (plasmids) were constructed via splicing by over-hang-extension (SOEing) PCR. For miR-125a-5p and miR-143-3p, each of which has two miRNA response elements on PCSK7 3′-UTR, three different mutant constructs were built. Two constructs were made by deleting a putative miRNA target site, and the third one was made by omitting both putative miRNA target sites in the 3′-UTR sequence of PCSK7. In the miR-409-3p mutant construct, a putative miRNA target site was deleted from the 3′-UTR sequence.
The HEK293T cells were co-transfected through the application of the wild-type psiCHECK-2, the wild-type PCSK7 3′-UTR, the mutant PCSK7 3′-UTR, and the miR-overexpressing vectors so that the direct interactions of the nominated miRNAs with PCSK7 3′-UTR could be investigated. In brief, 150 ng of the wild-type or mutated 3′-UTR constructs and 300 ng of the miRNA-expressing vectors were co-transfected in HEK293T-cultured 48-well plates using FuGENE™ (Invitrogen, USA). Additionally, the psiCHECK-2 and pEGFP-C1 mock vectors were transfected and utilized as controls for luciferase assay and transfection, respectively. Transfection efficiency was monitored by fluorescent microscopy (Nikon TE2000S, Japan) 36 hours following the procedure.
The PsiCHECK-2 reporter construct plasmid contained the Renilla luciferase gene upstream of PCSK7 3′-UTR and an independent firefly luciferase gene as an internal control for normalization. Forty-eight hours after HEK293T co-transfection, the luciferase reporter assay was carried out employing the Dual-Luciferase Reporter Assay System (Promega, USA) with a luminometer (Titertek-Berthold, Germany) in accordance with the manufacturer's protocol. Each sample was performed in triplicate, and the experiment was repeated at least three biological times. In short, a lysis buffer was added to each well after the removal of the media of the cell. Then, LARII Reagent was added, and after 20 minutes, the firefly luciferase activity was measured as a control. Afterward, Renilla activity was determined using Stop & Glo Reagent. The relative luciferase activity was calculated using the following formula: ΔFold Activity of Luciferase (Renilla/Firefly)=Average Renilla/Firefly from Samples A/B.
A luciferase reporter assay further confirmed that miR-125a-5p, miR-143-3p, and miR-409-3p directly targeted the 3′-UTR of the PCSK7 transcript since the negative regulatory effect was lost upon the deletion of the miRNA target sites (miR-125a-5p, miR-143-3p, and miR-409-3p) on the 3′-UTR of the PCSK7 reporter plasmid (FIGS. 28A-B). In this regard, three different mutated miR plasmids were constructed for both miR-125a-5p and miR-143-3p. Single-target sites of each miRNA were omitted individually in two separate plasmids, and the two putative binding sites of the miRNAs were deleted in the other plasmid.

**Q.** For “miR-125a-5p: miRNA targeting PCSK7 3′-UTR and exons 14 and 15, overexpressed from pEGFP-C1 precursor vector (UCCCUGAGACCCUUUAACCUGUGA; miRNA expressed from a pEGFP-C1 precursor vector, further chemistry not given here)”, which “expression level of the hTfR1 protein” value (hTfR1) is on record?
**A.** exerted no effect

**Q.** What about the relative luciferase activity ([1]; Mut-a, deletion of the first target site) of the same substance?
**A.** still decreased

**Q.** And the relative luciferase activity ([1]; Mut-a,b, deletion of both miRNA target sites)?
**A.** failed to significantly decrease

**Q.** And the relative luciferase activity ([1]; Mut-b, deletion of the second target site)?
**A.** still decreased
